Measurements: US7514567B2 (priority 2003, dated 2009)
pKd: −log10 of the molar value.

Target: α7 nAChR Subtype (Rattus norvegicus, UniProt Q05941)
Assay type: binding
Conditions: read-out: KD of radioligand from saturation curves

Sequence of α7 nAChR Subtype (Q05941 23-502 limits assumed): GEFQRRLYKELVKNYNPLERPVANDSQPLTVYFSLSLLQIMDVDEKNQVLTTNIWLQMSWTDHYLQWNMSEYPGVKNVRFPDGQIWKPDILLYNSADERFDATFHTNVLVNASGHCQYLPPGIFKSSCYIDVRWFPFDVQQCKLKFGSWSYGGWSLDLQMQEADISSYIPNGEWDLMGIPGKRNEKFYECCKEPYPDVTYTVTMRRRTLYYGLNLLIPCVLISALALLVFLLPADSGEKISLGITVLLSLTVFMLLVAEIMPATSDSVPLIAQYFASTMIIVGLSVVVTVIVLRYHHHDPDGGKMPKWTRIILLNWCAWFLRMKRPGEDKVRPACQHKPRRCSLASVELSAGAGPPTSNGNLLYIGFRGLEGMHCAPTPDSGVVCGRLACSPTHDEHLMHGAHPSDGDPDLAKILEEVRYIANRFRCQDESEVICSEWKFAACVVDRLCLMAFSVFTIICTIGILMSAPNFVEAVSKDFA

Substance: [^125I]-α-Bungarotoxin [[^125I]-α-BTX]
- pKd: 8.78
